Experimental data as given in patent US20230183303A1, “Therapeutic Potential of Peptides from the "Netrin-Like" Domain of the FRZB Protein” (Université de Lorraine, priority 2020, published 2023).
Entries after “also recorded” stand apart in the source; their conditions may differ.

Columns and labels:
[1] = test system: MC3T3-E1 cells; experiment: Quantification of mineralization (Alizarin Red) in MC3T3-E1 cells; assay type: cell-based, mouse; settings: PEP12 at 300 and 1000 ng/ml; 21 days; absorbance 405 nm
Method: Each time point was processed in three technical replicates. The medium was changed every two days.
Cells were washed with PBS and fixed with 95% ice-cold ethanol for 30 min at 4° C. for staining. After washing with distilled water, cells were stained with Alizarin Red staining (1% Alizarin Red S (Sigma)), washed three times with distilled water to remove unbound staining and air-dried. Quantification of the staining was performed by dissolving the mineral content in 800 μl of 10% acetic acid for 30 minutes. Then, the wells were scraped, the content of each well was harvested in a separate tube and vortexed for 30 seconds. Each tube was heated at 85° C. for 10 minutes, then put on ice for 5 minutes. Finally, tubes were centriguated at 13000 rpm for 15 minutes, the liquid phase was harvested and mixed with 100 μl of 10% ammonium hydroxide. Absorbance was measured at 405 nm with a spectrophotometer (Varioskan Flash, Thermo Fisher Scientific).
The mineralization level was evaluated by a biochemical assay as previously described after 21 days of differentiation culture. Results are representative of 3 experiments.

[2] = test system: alkaline phosphatase; settings: 300 ng/ml, 1000 ng/ml; day 1 and day 21; vs CTL
Method: MC3T3-E1 cells were differentiated during 21 days as mentioned previously. […] Treated cells were compared to cells without any peptide stimulation (CTL).
We also assessed the specific alkaline phosphatase activity (μmol de para-nitrophenol/min/mg of protein). To that goal, we lysed the cells using 300 μL of a buffer containing 0.2 M Tris-Base, 1.6 mM MgCl2 pH 8.1 and 1% Triton X-100. Samples were then placed into tubes and put on ice for 30 min. During this time, we alternated periods of 30 sec vortex and 5 min on ice. Then, samples were sonicated, and centrifugated for 15 min at 13 000 g, 4° C. Supernatant was collected, and total protein concentration was evaluated using bicinchoninic acid assay.
Alkaline phosphatase activity was measured by placing the harvested supernatants in para-nitrophenyl phosphate (pNPP) solution. The alkaline phosphatase will cleave this substrate and generate para-nitrophenol (pNP).
A solution of 4 mg/mL of pNPP is prepared in buffer A (0.1 M glycine pH 10.5, 0.11% (m/v) Zinc acetate and 0.011% magnesium chloride (m/v)). […]
Absorbance is read at 410 nm on a Varioskan Flash apparatus. Alkaline phosphatase activity is calculated based on the standard curve (equation A410=a×quantity(ρNP)+b) with the following formula: activity=((A(410 nm)−b)×reaction volume)/(a×sample volume×reaction time)

[3] = test system: 7×TCF/LEF response elements (Super 8×TOPFlash reporter); experiment: Promoter activation assay, Super 8×TOPFlash luciferase reporter in ATDC5 cells stimulated with Wnt3a; assay type: cell-based, mouse; settings: peptide at 300 ng/ml; 10 or 100 ng/mL recombinant Wnt3a; 24 h
Method: Results were normalized by-cotransfecting each of the above plasmid with the tyrosine kinase-renilla luciferase plasmid (Promega). Transfections were carried out using the Dharmafect kb transfection reagent (Fisher Scientific). Briefly, reporter plasmids and transfection reagent were diluted in serum-free medium, and then the diluted Dharmafect kb was added to the plasmids for an incubation time of 10 minutes at room temperature. During that time, cells were rinsed with PBS and were placed in fresh maintenance medium. When incubation was over, the mixture of transfection reagent-plasmids was dispensed in each well. Stimulations (with Wnt3a and/or PEP16 and/or PEP16bis) were carried out the next day.

[4] = test system: ATDC5 micromasses; experiment: Glycosaminoglycan/proteoglycan quantification (Alcian blue staining) in ATDC5 micromasses; assay type: cell-based, mouse; settings: for proteoglycans deposition in the extracellular matrix (Alcian blue, absorbance 650 nm): 300 ng/ml, 14 days, vs control cells
Method: (§1) Mouse chondrogenic ATDC5 cells (cartilage-specific chondrogenic strain) were cultured until confluent in maintenance medium containing 1:1 Dulbecco's modified Eagle's medium (DMEM): Ham's F-12 mix (Gibco) supplemented with 1% antibiotic (AB, Penicillin-Streptomycin, Gibco), 5% fetal bovine serum (FBS) (Gibco) and enriched with […] human transferrin (Sigma) and 30 nM sodium selenite (Sigma). Cells were trypsinized, washed and resuspended at 2.10^7 cells/mL in a chondrogenic medium made of maintenance medium enriched by 1× of ITS premix (resulting in 10 μg/mL insulin, 10 μg/mL human transferrin and 30 nM sodium selenite) (Life technologies). One droplet of cell suspension (10 μL) was placed at the center of each well of a 24-well plate. Cells were allowed to adhere for 2 h at 37° C., followed by addition of 500 μL chondrogenic medium supplemented. […] After 14 days, induction of hypertrophic differentiation and mineralization was induced by the mineralization medium made of α-MEM medium (Gibco) containing 1% AB, 5% FBS, 5 μg/ml human transferrin, 1× of ITS premix, 50 μg/ml ascorbic acid-2-phosphate (AA) (Sigma) and 10 mM β-glycerophosphate (BGP) (Sigma). […] Micromasses were collected at time points 1, 7, 14 21 and 28 days. Each time point was processed in three technical replicates. The medium was changed every other day. […] The genes of interest were articular chondrocyte markers (aggrecan, type 2 collagen (col2a1)), YAP/TAZ target genes (ctgf, ankrd) and pro-catabolic enzymes involved in the pathophysiology of OA (mmp3, mmp13).
Micromasses were washed with PBS and fixed with 95% ice-cold ethanol for 30 min at 4° C. for staining. After washing with distilled water, micromasses were stained with Alcian Blue (0.1% Alcian Blue 8GX, (Sigma)), washed three times with distilled water to remove unbound staining and air-dried.

[5] = test system: CamKII pathway; experiment: Western blot of CamKII pathway activation in ATDC5 micromasses; assay type: cell-based, mouse; settings: 300 ng/mL; day 21 and 28
Method: (§2) Mouse chondrogenic ATDC5 cells (cartilage-specific chondrogenic strain) were cultured until confluent in maintenance medium containing 1:1 Dulbecco's modified Eagle's medium (DMEM): Ham's F-12 mix (Gibco) supplemented with 1% antibiotic (AB, Penicillin-Streptomycin, Gibco), 5% fetal bovine serum (FBS) (Gibco) and enriched with […] human transferrin (Sigma) and 30 nM sodium selenite (Sigma). Cells were trypsinized, washed and resuspended at 2.10^7 cells/mL in a chondrogenic medium made of maintenance medium enriched by 1× of ITS premix (resulting in 10 μg/mL insulin, 10 μg/mL human transferrin and 30 nM sodium selenite) (Life technologies). One droplet of cell suspension (10 μL) was placed at the center of each well of a 24-well plate. Cells were allowed to adhere for 2 h at 37° C., followed by addition of 500 μL chondrogenic medium supplemented. […] After 14 days, induction of hypertrophic differentiation and mineralization was induced by the mineralization medium made of α-MEM medium (Gibco) containing 1% AB, 5% FBS, 5 μg/ml human transferrin, 1× of ITS premix, 50 μg/ml ascorbic acid-2-phosphate (AA) (Sigma) and 10 mM β-glycerophosphate (BGP) (Sigma). […] Micromasses were collected at time points 1, 7, 14 21 and 28 days. Each time point was processed in three technical replicates. The medium was changed every other day. […]

[6] = test system: mouse articular chondrocytes; experiment: qRT-PCR relative expression of genes of interest in mouse articular chondrocytes; assay type: cell-based; settings: 300 ng/mL; 12 h of stimulation
Method: Mouse articular chondrocyte (MACs) were isolated from femoral heads by enzymatic digestion of whole femoral head caps. Samples were washed three times in 1% AB/phosphate buffered saline (PBS) and incubated with 2 mg/ml pronase (Roche)/DMEM-F12 at 37° C. for 1 h at slow rotation 100 rpm followed by a 3 h incubation with 1.5 mg/ml collagenase B (Roche)/DMEM-F12 at 37° C. Cells were seeded at 1×10^6 cells/[…], and cultured for 7 to 14 days in growth medium DMEM-F12, containing 1% AB (Gibco), 10% FBS (Gibco) and 5% L-glutamine (Thermoscientific). Passage 1 cells were utilized for the experiments. The culture supernatants were then harvested in order to perform MMP13 enzymatic activity assay. The evaluation of the expression of genes of interest included articular chondrocyte markers (aggrecan, type 2 collagen (col2a1)), YAP/TAZ target genes (ankrd) and pro-catabolic enzyme involved in the pathophysiology of OA (mmp3).
(§3) Total RNA was isolated using the Nucleospin RNA II kit (Macherey-Nagel) and reverse-transcribed using the MMLV reverse transcriptase (Thermo Fisher Scientific) following the manufacturers' instructions. The iTaq SYBR green qPCR master mix (BioRad) was used to assess the mRNA expression of target genes of interest. Primer sequences can be provided upon request. The following PCR conditions were used: 1 minute at 95° C., 40 cycles of 15 sec of denaturation at 95° C., followed by 1 minute of annealing-elongation at 60° C. Melting curve analysis was performed to determine the amplification of the specific product. Results were expressed using the comparative threshold method and were normalized to housekeeping gene PPIA (Peptidylprolyl Isomerase A) mRNA level for ATDC5 cells and MACs, or normalized to housekeeping gene S29 (ribosomal protein S29) mRNA level for MC3T3-E1 cells. The Via7 real-time PCR system (Thermo Fisher Scientific) was used for qRT-PCR measurements.

[7] = test system: Wnt/β-catenin pathway; experiment: Western blot of Wnt/β-catenin pathway activation in ATDC5 micromasses; assay type: cell-based, mouse; settings: 300 ng/mL; day 21 and 28
Method: as §2

[8] = test system: ATDC5 micromasses; experiment: qRT-PCR relative expression of genes of interest in ATDC5 micromass culture (chondrogenesis); assay type: cell-based, mouse; settings: for MMP3 expression / YAP/TAZ target genes (CTGF) expression / articular chondrocyte extracellular matrix genes (type II collagen and aggrecan) expression: 300 ng/ml, differentiated 14 days with ITS, D14 vs CTL
Method: as §1, §3
(§4) ATDC5 cells were cultured as micromasses and differentiated during 14 days using ITS as mentioned previously. […] RNA was isolated and qPCR were performed for different target genes, i.e. type II collagen and aggrecan (articular chondrocyte extracellular matrix), CTGF (YAP/TAZ target genes, indicators of the pathway activity) and MMP3 (cartilage degrading enzyme increased during osteoarthritis) (FIG. 15). Alcian blue staining was performed on the micromasses cultures, and biochemical quantitation was performed as previously described (FIG. 16).
as §4, with “gene, indicator” for “genes, indicators”, “17).” for “15).”, “18).” for “16).”

[9] = test system: mouse model of OA; settings: mouse model of OA (Zhang et al., 2020); cited from earlier work
[10] = 300 ng/mL, day 1, 21, 28, vs non-treated control

## ATQKTYFRNNYN (PEP12)
[1]
  extracellular matrix mineralization (biochemical quantitation): not able to increase extracellular matrix mineralization
[2]
  specific alkaline phosphatase activity: not able to increase the alkaline phosphatase activity

## DRAGKKVKRWDMKARH (PEP16bis) [mutant of PEP16, L in position 3 and 14 changed to A]
[3]
  activity of the canonical Wnt pathway in the Super TOPFlash luciferase reporter system (Firefly/renilla ratio): very similar properties (biological activity) to the initial sequence PEP16; also recorded: significantly reduce the activity
[4]; 300 ng/mL, Alcian blue at day 28, absorbance 650 nm
  glycosaminoglycans quantification (accumulation in the extracellular matrix): significantly increased the accumulation of glycosaminoglycans
[5]
  CamKII pathway activation (P-CamKII over total): increased the activation of the CamKII pathway
[6]
  expression of Ankrd, a target gene of the Hippo/YAP/TAZ pathway: capable of reducing the expression
[7]
  Wnt/β-catenin pathway activation (active protein form over total protein form): reduced in the activation of the Wnt/β-catenin pathway
[8]; [10]
  expression of Ctgf, a target gene of the Hippo/YAP/TAZ pathway: efficiently reduced the expression
  relative expression level of aggrecan: favoured the induction of the expression
  relative expression level of col2a1 (type 2 collagen): favoured the induction of the expression
  relative expression level of mmp3: efficiently reduced the expression
  relative expression level of mmp13: efficiently reduced the expression

## DRIGKKVKRWDMKIRH (PEP i) [PEP16 where L in position 3 and 14 were changed to an Isoleucine]
[4]
  proteoglycans deposition in the extracellular matrix (Alcian blue, absorbance 650 nm): significantly increase the proteoglycans deposition
[8]
  MMP3 expression: significant decrease
  YAP/TAZ target genes (CTGF) expression: significant decrease
  articular chondrocyte extracellular matrix genes (type II collagen and aggrecan) expression: significant increase

## DRSGKKVKRWDMKSRH (PEP s) [PEP16 where L in position 3 and 14 were changed to a Serine]
[4]
  proteoglycans deposition in the extracellular matrix (Alcian blue, absorbance 650 nm): significantly increase the proteoglycans deposition
[8]
  MMP3 expression: significant decrease
  YAP/TAZ target genes (CTGF) expression: significant decrease
  articular chondrocyte extracellular matrix genes (type II collagen and aggrecan) expression: significant increase

## Verteporfin
[9]
  cartilage homeostasis: allowed preserving the cartilage homeostasis
